These are literature values, as cited in patent US20120177693A1, “DEEP LUNG PULMONARY DELIVERY OF TREPROSTINIL” (Aradigm Corporation, priority 2008, published 2012).

For this data set the following is noted: inhaled; Voswinckel et al.; cited from earlier work.

As for `CC#CCC(C)[C@H](O)/C=C/[C@@H]1[C@H]2C/C(=C/CCCC(=O)O)C[C@H]2C[C@H]1O` (some centres unmarked) [iloprost], the Plasma half-life result is reported as “about 8 min” and the “Time of peak plasma levels” value is recorded as “immediately after the completion of the inhalation session”.
